Assay results taken from patent US8993574B2, “Pyrrole antifungal agents” (F2G Ltd, priority 2008, dated 2015).
≈ marks a conversion by molar mass, not a printed value.

What was measured:
Assay type in all cases: cell-based
Candida albicans = test: MIC, RPMI medium; conditions: Candida albicans, 24-48 h at 35° C., >80% growth inhibition, banded into grades
In short: (§1)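 Minimum inhibitory concentrations were determined in glucose-supplemented (2%) RPMI buffered to pH 7.0 with 0.135 M MOPS. Wells held 1−2×10^4 cfu/mL and compound from 50 to 0.05 mg/L, incubated 24-48 h at 35° C, with >80% growth reduction by OD 485 nm as endpoint.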

Aspergillus terreus AT49 [1] = test: MIC, RPMI medium; conditions: Aspergillus terreus, AT49, MIC banded into grades, read-out: MIC grade, A. terreus 49
In short: as §1

[2] = system: Aspergillus fumigatus AF293; test: MIC, RPMI medium; conditions: Aspergillus fumigatus, AF293, MIC banded into grades, read-out: MIC grade, A. fumigatus
In short: as §1

Candida parapsilosis = test: MIC, RPMI medium; conditions: Lodderomyces parapsilosis, 24-48 h at 35° C., >80% growth inhibition, banded into grades
In short: as §1

Aspergillus niger [3] = test: MIC, RPMI medium; conditions: Aspergillus niger, MIC banded into grades, read-out: MIC grade, A. niger
In short: as §1

Candida krusei = test: MIC, RPMI medium; conditions: Pichia kudriavzevii, 24-48 h at 35° C., >80% growth inhibition, banded into grades
In short: as §1

Aspergillus flavus [4] = test: MIC, RPMI medium; conditions: Aspergillus flavus, MIC banded into grades, read-out: MIC grade, A. flavus
In short: as §1

[5] = system: Aspergillus fumigatus AF210; test: MIC, RPMI medium; conditions: Aspergillus fumigatus, AF210, MIC banded into grades, read-out: MIC grade, A. fumigatus 210
In short: as §1

Aspergillus terreus AT4 [6] = test: MIC, RPMI medium; conditions: Aspergillus terreus, AT4, MIC banded into grades, read-out: MIC grade, A. terreus
In short: as §1

Candida glabrata = test: MIC, RPMI medium; conditions: Nakaseomyces glabratus, 24-48 h at 35° C., >80% growth inhibition, banded into grades
In short: as §1

Candida tropicalis = test: MIC, RPMI medium; conditions: Candida tropicalis, 24-48 h at 35° C., >80% growth inhibition, banded into grades
In short: as §1

Aspergillus terreus AT49 [7] = test: MIC, YAG medium; conditions: Aspergillus terreus, 24 h at 35° C, MIC banded into grades, read-out: MIC grade, A. terreus 49
In short: (§2)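 Spores from 5-day Sabouraud agar cultures were suspended in YAG medium (1% glucose, 1% ammonium chloride, 0.5% yeast extract) at final inocula of 1−2×10^4 cfu/mL against doubling dilutions of compound (50-0.05 mg/L; 0.5-0.0005 mg/L on repeat). Plates were incubated 24 h at 35° C. MIC was the lowest concentration giving >70% growth inhibition by OD485 versus drug-free control.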

[8] = system: Aspergillus fumigatus AF293; test: MIC, YAG medium; conditions: Aspergillus fumigatus, 24 h at 35° C, MIC banded into grades, read-out: MIC grade, A. fumigatus
In short: as §2

Aspergillus niger [9] = test: MIC, YAG medium; conditions: Aspergillus niger, 24 h at 35° C, MIC banded into grades, read-out: MIC grade, A. niger
In short: as §2

Aspergillus flavus [10] = test: MIC, YAG medium; conditions: Aspergillus flavus, 24 h, 24 h at 35° C, MIC banded into grades, read-out: MIC grade, A. flavus
In short: as §2

[11] = system: Aspergillus fumigatus AF210; test: MIC, YAG medium; conditions: Aspergillus fumigatus, 24 h at 35° C, MIC banded into grades, read-out: MIC grade, A. fumigatus 210
In short: as §2

Aspergillus terreus AT4 [12] = test: MIC, YAG medium; conditions: Aspergillus terreus, 24 h at 35° C, MIC banded into grades, read-out: MIC grade, A. terreus
In short: as §2

MIC (Candida albicans)	MIC (Aspergillus terreus AT49 [1])	MIC [2]	MIC (Candida parapsilosis)	MIC (Aspergillus niger [3])	MIC (Candida krusei)	MIC (Aspergillus flavus [4])	MIC [5]	MIC (Aspergillus terreus AT4 [6])	MIC (Candida glabrata)	MIC (Candida tropicalis)	MIC (Aspergillus terreus AT49 [7])	MIC [8]	MIC (Aspergillus niger [9])	MIC (Aspergillus flavus [10])	MIC [11]	MIC (Aspergillus terreus AT4 [12])	Compound
< 1 µg/mL	1 to 10 µg/mL (≈ 1.84 to 18.4 µM)	1 to 10 µg/mL (≈ 1.84 to 18.4 µM)	< 1 µg/mL	1 to 10 µg/mL (≈ 1.84 to 18.4 µM)	1 to 10 µg/mL (≈ 1.84 to 18.4 µM)	1 to 10 µg/mL (≈ 1.84 to 18.4 µM)	1 to 10 µg/mL (≈ 1.84 to 18.4 µM)	1 to 10 µg/mL (≈ 1.84 to 18.4 µM)	< 1 µg/mL	< 1 µg/mL	< 1 µg/mL	< 1 µg/mL	< 1 µg/mL	1 to 10 µg/mL (≈ 1.84 to 18.4 µM)	< 1 µg/mL	< 1 µg/mL	COCCn1ccc(-c2ccsc2)c1C(=O)C(=O)Nc1ccc(N2CCN(c3cc(C)cc(C)n3)CC2)cc1 [Example 72, N-{4-[4-(4,6-Dimethyl-pyridin-2-yl)-piperazin-1-yl]-phenyl}-2-[1-(2-methoxy-ethyl)-3-thiophen-3-yl-1H-pyrrol-2-yl]-2-oxo-acetamide]
1 to 10 µg/mL (≈ 1.82 to 18.2 µM)	1 to 10 µg/mL (≈ 1.82 to 18.2 µM)	> 10 µg/mL	1 to 10 µg/mL (≈ 1.82 to 18.2 µM)	1 to 10 µg/mL (≈ 1.82 to 18.2 µM)	1 to 10 µg/mL (≈ 1.82 to 18.2 µM)	> 10 µg/mL	> 10 µg/mL	1 to 10 µg/mL (≈ 1.82 to 18.2 µM)	1 to 10 µg/mL (≈ 1.82 to 18.2 µM)	1 to 10 µg/mL (≈ 1.82 to 18.2 µM)	> 10 µg/mL	> 10 µg/mL	1 to 10 µg/mL (≈ 1.82 to 18.2 µM)	> 10 µg/mL	> 10 µg/mL	> 10 µg/mL	Cc1cc(C)nc(N2CCN(c3ccc(NC(=O)C(=O)c4cc(-c5ccccc5)cn4CCN(C)C)cc3)CC2)c1 [Example 85, 2-[1-(2-Dimethylamino-ethyl)-4-phenyl-1H-pyrrol-2-yl]-N-{4-[4-(4,6-dimethyl-pyridin-2-yl)-piperazin-1-yl]-phenyl}-2-oxo-acetamide]
< 1 µg/mL	> 10 µg/mL	> 10 µg/mL	< 1 µg/mL	> 10 µg/mL	< 1 µg/mL	> 10 µg/mL	> 10 µg/mL	> 10 µg/mL	< 1 µg/mL	< 1 µg/mL	> 10 µg/mL	> 10 µg/mL	> 10 µg/mL	> 10 µg/mL	> 10 µg/mL	> 10 µg/mL	Cc1cc(C)nc(N2CCN(c3ccc(NC(=O)C(=O)c4c(-c5ccccc5)ccn4CCN(C)C)cc3)CC2)c1 [Example 84, 2-[1-(2-Dimethylamino-ethyl)-3-phenyl-1H-pyrrol-2-yl]-N-{4-[4-(4,6-dimethyl-pyridin-2-yl)-piperazin-1-yl]-phenyl}-2-oxo-acetamide]
< 1 µg/mL	> 10 µg/mL	> 10 µg/mL	< 1 µg/mL	> 10 µg/mL	< 1 µg/mL	> 10 µg/mL	1 to 10 µg/mL (≈ 1.82 to 18.2 µM)	> 10 µg/mL	< 1 µg/mL	< 1 µg/mL	> 10 µg/mL	1 to 10 µg/mL (≈ 1.82 to 18.2 µM)	> 10 µg/mL	> 10 µg/mL	1 to 10 µg/mL (≈ 1.82 to 18.2 µM)	> 10 µg/mL	CNC(=O)Cn1ccc(-c2ccccc2)c1C(=O)C(=O)Nc1ccc(N2CCN(c3cc(C)cc(C)n3)CC2)cc1 [Example 76, N-{4-[4-(4,6-Dimethyl-pyridin-2-yl)-piperazin-1-yl]-phenyl}-2-(1-methylcarbamoylmethyl-3-phenyl-1H-pyrrol-2-yl)-2-oxo-acetamide]
